Data reported in paper PMC10544575, “Inhibitory mechanism of vortioxetine on CYP450 enzymes in human and rat liver microsomes” (Frontiers in Pharmacology, 2023).

What was measured:
[1] = parameters: method as in earlier work; conditions: patients with severe liver impairment; single oral dose of 10 mg; ref (2022); cited from earlier work
CYP2C8 = biological target: T1, CYP2C8 (Homo sapiens, UniProt P10632); assay: IC50-shift experiment, CYP2C8 in HLMs; type: in vitro ADME; parameters: 0.20 mg/mL HLMs or 0.20 mg/mL RLMs; from tissue; host or cells: human liver microsomes; conditions: for IC50: amodiaquine 3 μM
T1 sequence (P10632 1-490): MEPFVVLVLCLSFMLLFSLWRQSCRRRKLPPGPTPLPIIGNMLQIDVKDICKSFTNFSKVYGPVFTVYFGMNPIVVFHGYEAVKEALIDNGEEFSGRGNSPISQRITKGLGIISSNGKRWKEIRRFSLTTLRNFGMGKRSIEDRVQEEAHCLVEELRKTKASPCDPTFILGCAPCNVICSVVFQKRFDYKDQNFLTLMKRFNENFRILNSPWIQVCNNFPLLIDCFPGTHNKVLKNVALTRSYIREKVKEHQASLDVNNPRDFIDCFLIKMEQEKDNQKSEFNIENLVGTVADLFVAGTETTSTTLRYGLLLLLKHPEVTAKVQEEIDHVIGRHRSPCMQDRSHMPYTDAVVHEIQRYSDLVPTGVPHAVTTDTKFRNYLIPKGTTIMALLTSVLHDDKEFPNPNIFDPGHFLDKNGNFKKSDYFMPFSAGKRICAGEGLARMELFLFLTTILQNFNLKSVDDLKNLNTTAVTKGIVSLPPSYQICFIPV
Protocol: The components of the incubation system were as follows: 0.20 mg/mL HLMs or 0.20 mg/mL RLMs, 0.1 M Tris-HCl, vortioxetine, and the probe substrates of each enzyme. In the study of Km’s (Michaelis–Menten constant) experiment, midazolam (1, 2, 5, 10, 20, 50 and 100 μM in HLMs and RLMs) corresponded to CYP3A4/3A; bupropion (10, 20, 50, 100, 200, 500, 1,000 and 2000 μM in HLMs; 1, 2, 5, 10, 20, 50, 100 and 200 μM in RLMs) corresponded to CYP2B6/2B; amodiaquine (5, 10, 20, 50, 100 and 200 μM in HLMs; 10, 20, 50, 100, 200, 500 μM in RLMs) corresponded to CYP2C8/CYP2C-1; losartan (1, 2, 5, 10, 20, 50, 100, 200 μM in HLMs; 10, 20, 50, 100, 200, 500 and 1,000 μM in RLMs) corresponded to CYP2C9/CYP2C-2; mephenytoin (20, 50, 100, 200, 500 and 1,000 μM in HLMs; 5, 10, 20, 50, 100, 200, 500 and 1,000 μM in RLMs) corresponded to CYP2C19/CYP2C-3; and dextromethorphan (1, 2, 5, 10, 20, 50 and 100 μM in HLMs and RLMs) corresponded to CYP2D6/CYP2D. After 5.0 min of preincubation in the shaking water bath, the reaction was started with the addition of 1.0 mM NADPH. The incubated temperature at 37°C for 30 min. After the incubation, the enzyme reaction was stopped by cooling at −80°C, and 200 μL of acetonitrile and 20 μL of internal standard diazepam (200 ng/mL) were added for protein precipitation. […]
IC50-shift was used to investigate whether the drug produced time-dependent inhibition (TDI) of the enzyme. […] During the experiment, the individual substrates midazolam (4 μM), bupropion (40 μM), amodiaquine (3 μM), losartan (8 μM), mephenytoin (90 μM), and dextromethorphan (10 μM) were determined with vortioxetine IC50-shift in HLMs. […]
(§1) All experiments results were detected by UPLC-MS/MS, which equipped with a Waters Acquity UPLC system (Milford, MA, United States) and a Waters Xevo TQ-S triple quadrupole tandem mass spectrometer with an electrospray ionization source (Milford, MA, United States). […]
(§2) IC50 values and enzyme kinetic parameters were calculated by Graphpad Prism 6.0 (GraphPad software Inc., CA, United States). […] Data for each experiment were expressed as mean ± SD (n = 3).

CYP2C-3 = assay: Reversible inhibition kinetics (Lineweaver-Burk), CYP2C-3 in RLMs; type: in vitro ADME, rat
Protocol: The components of the incubation system were as follows: 0.20 mg/mL HLMs or 0.20 mg/mL RLMs, 0.1 M Tris-HCl, vortioxetine, and the probe substrates of each enzyme. In the study of Km’s (Michaelis–Menten constant) experiment, midazolam (1, 2, 5, 10, 20, 50 and 100 μM in HLMs and RLMs) corresponded to CYP3A4/3A; bupropion (10, 20, 50, 100, 200, 500, 1,000 and 2000 μM in HLMs; 1, 2, 5, 10, 20, 50, 100 and 200 μM in RLMs) corresponded to CYP2B6/2B; amodiaquine (5, 10, 20, 50, 100 and 200 μM in HLMs; 10, 20, 50, 100, 200, 500 μM in RLMs) corresponded to CYP2C8/CYP2C-1; losartan (1, 2, 5, 10, 20, 50, 100, 200 μM in HLMs; 10, 20, 50, 100, 200, 500 and 1,000 μM in RLMs) corresponded to CYP2C9/CYP2C-2; mephenytoin (20, 50, 100, 200, 500 and 1,000 μM in HLMs; 5, 10, 20, 50, 100, 200, 500 and 1,000 μM in RLMs) corresponded to CYP2C19/CYP2C-3; and dextromethorphan (1, 2, 5, 10, 20, 50 and 100 μM in HLMs and RLMs) corresponded to CYP2D6/CYP2D. After 5.0 min of preincubation in the shaking water bath, the reaction was started with the addition of 1.0 mM NADPH. The incubated temperature at 37°C for 30 min. After the incubation, the enzyme reaction was stopped by cooling at −80°C, and 200 μL of acetonitrile and 20 μL of internal standard diazepam (200 ng/mL) were added for protein precipitation. The solution was fully vortexed and centrifuged at 13,000 × rpm for 10 min, and the supernatant was collected for data analysis by UPLC-MS/MS.
The inhibitory mechanism of the inhibitor on the enzyme was generally used by different concentrations of the inhibitor against different concentrations of the probe substrate. The concentrations of the inhibitor and the concentrations of probe substrates in the experiment were estimated based on IC50 and Km values, respectively.
In RLMs, the concentrations of the substrates midazolam and dextromethorphan were 0.8, 1.6, 3.5, 7 μM and 5, 10, 20, 40 μM, respectively, vortioxetine concentrations were 4, 8, 16, 32 μM. The concentrations of mephenytoin and amodiaquine were 100, 200, 400, 800 μM and 5, 10, 20, 40 μM, respectively, vortioxetine concentrations were 5, 10, 20, 40 μM. The losartan concentrations were 4, 8, 15, 30 μM, corresponding to vortioxetine concentrations of 0.08, 0.15, 0.3, 0.6 μM. […]
as §1, §2

IC50 (CYP2C8; 30 min preincubation with 1.0 mM NADPH): 18.7 µM | IC50 (CYP2C8; 30 min preincubation without NADPH): 18.2 µM | α (CYP2C-3; mephenytoin): 2.97 | Inhibition type (CYP2C-3; mephenytoin, Lineweaver-Burk plot): noncompetitive inhibition | αKi (CYP2C-3; mephenytoin, secondary plot of y-intercepts): 12.54 µM | Ki at 30 min (CYP2C-3; rat, rat liver microsomes, probe mephenytoin): 4.23 µM
Compound: Cc1ccc(Sc2ccccc2N2CCNCC2)c(C)c1 [vortioxetine]
AUC(0-t) higher than healthy subjects [1]: 10% | Cmax lower than healthy subjects [1]: 24% | IC50 shift at 30 min (CYP2C8; human, human liver microsomes, probe amodiaquine (3 μM), ratio IC50 (−) NADPH to IC50 (+) NADPH, read-out: IC50 fold shift): 0.97
